# The NIST ThermoML archive (doi:10.1021/je050416y)
# ± gives the expanded uncertainty stated by the source.
# Experiment: xn = mol fraction of the nth substance listed
# Settings: 101 kPa, Liquid; for mass density: Vibrating tube method
smiles,measurement,setting,value
CCC(C)CO (stereo unspecified) [2-methyl-1-butanol] + CCO,mass density,"293.15 K, x1 = 0.0268",790.9 ± 1 kg/m3
same,mass density,"293.15 K, x1 = 0.0549",792.1 ± 1 kg/m3
same,mass density,"293.15 K, x1 = 0.0845",793.4 ± 1 kg/m3
same,mass density,"293.15 K, x1 = 0.1156",794.7 ± 1 kg/m3
same,mass density,"293.15 K, x1 = 0.1484",795.9 ± 1 kg/m3
same,mass density,"293.15 K, x1 = 0.183",797.2 ± 1 kg/m3
same,mass density,"293.15 K, x1 = 0.2584",799.9 ± 1 kg/m3
same,mass density,"293.15 K, x1 = 0.3433",802.7 ± 1 kg/m3
same,mass density,"293.15 K, x1 = 0.4395",805.5 ± 1 kg/m3
same,mass density,"293.15 K, x1 = 0.5495",808.4 ± 1 kg/m3
same,mass density,"293.15 K, x1 = 0.6765",811.4 ± 1 kg/m3
same,mass density,"293.15 K, x1 = 0.8247",814.5 ± 1 kg/m3
same,mass density,"293.15 K, x1 = 1",817.6 ± 1 kg/m3
same,kinematic viscosity,"293.15 K, x1 = 0.0915",1.66e-06 ± 7.8e-08 m2/s
same,kinematic viscosity,"293.15 K, x1 = 0.1753",1.8e-06 ± 8.3e-08 m2/s
same,kinematic viscosity,"293.15 K, x1 = 0.2524",1.92e-06 ± 8.9e-08 m2/s
same,kinematic viscosity,"293.15 K, x1 = 0.3235",2.04e-06 ± 9.4e-08 m2/s
same,kinematic viscosity,"293.15 K, x1 = 0.3894",2.17e-06 ± 9.9e-08 m2/s
same,kinematic viscosity,"293.15 K, x1 = 0.4505",2.32e-06 ± 1.1e-07 m2/s
same,kinematic viscosity,"293.15 K, x1 = 0.5605",2.67e-06 ± 1.2e-07 m2/s
same,kinematic viscosity,"293.15 K, x1 = 0.6567",3.06e-06 ± 1.4e-07 m2/s
same,kinematic viscosity,"293.15 K, x1 = 0.7416",3.47e-06 ± 1.5e-07 m2/s
same,kinematic viscosity,"293.15 K, x1 = 0.817",3.92e-06 ± 1.7e-07 m2/s
same,kinematic viscosity,"293.15 K, x1 = 0.8844",4.45e-06 ± 2e-07 m2/s
same,kinematic viscosity,"293.15 K, x1 = 0.9451",5.14e-06 ± 2.2e-07 m2/s
same,kinematic viscosity,"293.15 K, x1 = 1",6.11e-06 ± 2.5e-07 m2/s
same,mass density,"298.15 K, x1 = 0.0268",786.6 ± 1 kg/m3
same,mass density,"298.15 K, x1 = 0.0549",787.9 ± 1 kg/m3
same,mass density,"298.15 K, x1 = 0.0845",789.2 ± 1 kg/m3
same,mass density,"298.15 K, x1 = 0.1156",790.6 ± 1 kg/m3
same,mass density,"298.15 K, x1 = 0.1484",791.9 ± 1 kg/m3
same,mass density,"298.15 K, x1 = 0.183",793.2 ± 1 kg/m3
same,mass density,"298.15 K, x1 = 0.2584",796 ± 1 kg/m3
same,mass density,"298.15 K, x1 = 0.3433",798.8 ± 1 kg/m3
same,mass density,"298.15 K, x1 = 0.4395",801.8 ± 1 kg/m3
same,mass density,"298.15 K, x1 = 0.5495",804.8 ± 1 kg/m3
same,mass density,"298.15 K, x1 = 0.6765",807.9 ± 1 kg/m3
same,mass density,"298.15 K, x1 = 0.8247",811 ± 1 kg/m3
same,mass density,"298.15 K, x1 = 1",814.1 ± 1 kg/m3
same,kinematic viscosity,"298.15 K, x1 = 0.0915",1.5e-06 ± 7.1e-08 m2/s
same,kinematic viscosity,"298.15 K, x1 = 0.1753",1.61e-06 ± 7.6e-08 m2/s
same,kinematic viscosity,"298.15 K, x1 = 0.2524",1.71e-06 ± 8e-08 m2/s
same,kinematic viscosity,"298.15 K, x1 = 0.3235",1.82e-06 ± 8.4e-08 m2/s
same,kinematic viscosity,"298.15 K, x1 = 0.3894",1.93e-06 ± 8.9e-08 m2/s
same,kinematic viscosity,"298.15 K, x1 = 0.4505",2.06e-06 ± 9.5e-08 m2/s
same,kinematic viscosity,"298.15 K, x1 = 0.5605",2.36e-06 ± 1.1e-07 m2/s
same,kinematic viscosity,"298.15 K, x1 = 0.6567",2.69e-06 ± 1.2e-07 m2/s
same,kinematic viscosity,"298.15 K, x1 = 0.7416",3.04e-06 ± 1.4e-07 m2/s
same,kinematic viscosity,"298.15 K, x1 = 0.817",3.43e-06 ± 1.5e-07 m2/s
same,kinematic viscosity,"298.15 K, x1 = 0.8844",3.89e-06 ± 1.7e-07 m2/s
same,kinematic viscosity,"298.15 K, x1 = 0.9451",4.49e-06 ± 2e-07 m2/s
same,kinematic viscosity,"298.15 K, x1 = 1",5.34e-06 ± 2.3e-07 m2/s
same,mass density,"303.15 K, x1 = 0.0268",782.3 ± 1 kg/m3
same,mass density,"303.15 K, x1 = 0.0549",783.7 ± 1 kg/m3
same,mass density,"303.15 K, x1 = 0.0845",785 ± 1 kg/m3
same,mass density,"303.15 K, x1 = 0.1156",786.4 ± 1 kg/m3
same,mass density,"303.15 K, x1 = 0.1484",787.8 ± 1 kg/m3
same,mass density,"303.15 K, x1 = 0.183",789.2 ± 1 kg/m3
same,mass density,"303.15 K, x1 = 0.2584",792 ± 1 kg/m3
same,mass density,"303.15 K, x1 = 0.3433",795 ± 1 kg/m3
same,mass density,"303.15 K, x1 = 0.4395",798 ± 1 kg/m3
same,mass density,"303.15 K, x1 = 0.5495",801.1 ± 1 kg/m3
same,mass density,"303.15 K, x1 = 0.6765",804.2 ± 1 kg/m3
same,mass density,"303.15 K, x1 = 0.8247",807.4 ± 1 kg/m3
same,mass density,"303.15 K, x1 = 1",810.5 ± 1 kg/m3
same,kinematic viscosity,"303.15 K, x1 = 0.0915",1.32e-06 ± 6.3e-08 m2/s
same,kinematic viscosity,"303.15 K, x1 = 0.1753",1.41e-06 ± 6.7e-08 m2/s
same,kinematic viscosity,"303.15 K, x1 = 0.2524",1.5e-06 ± 7.1e-08 m2/s
same,kinematic viscosity,"303.15 K, x1 = 0.3235",1.59e-06 ± 7.4e-08 m2/s
same,kinematic viscosity,"303.15 K, x1 = 0.3894",1.68e-06 ± 7.9e-08 m2/s
same,kinematic viscosity,"303.15 K, x1 = 0.4505",1.8e-06 ± 8.4e-08 m2/s
same,kinematic viscosity,"303.15 K, x1 = 0.5605",2.06e-06 ± 9.5e-08 m2/s
same,kinematic viscosity,"303.15 K, x1 = 0.6567",2.35e-06 ± 1.1e-07 m2/s
same,kinematic viscosity,"303.15 K, x1 = 0.7416",2.66e-06 ± 1.2e-07 m2/s
same,kinematic viscosity,"303.15 K, x1 = 0.817",3e-06 ± 1.3e-07 m2/s
same,kinematic viscosity,"303.15 K, x1 = 0.8844",3.41e-06 ± 1.5e-07 m2/s
same,kinematic viscosity,"303.15 K, x1 = 0.9451",3.94e-06 ± 1.7e-07 m2/s
same,kinematic viscosity,"303.15 K, x1 = 1",4.69e-06 ± 2e-07 m2/s
same,mass density,"308.15 K, x1 = 0.0268",778 ± 1 kg/m3
same,mass density,"308.15 K, x1 = 0.0549",779.4 ± 1 kg/m3
same,mass density,"308.15 K, x1 = 0.0845",780.9 ± 1 kg/m3
same,mass density,"308.15 K, x1 = 0.1156",782.3 ± 1 kg/m3
same,mass density,"308.15 K, x1 = 0.1484",783.8 ± 1 kg/m3
same,mass density,"308.15 K, x1 = 0.183",785.2 ± 1 kg/m3
same,mass density,"308.15 K, x1 = 0.2584",788.1 ± 1 kg/m3
same,mass density,"308.15 K, x1 = 0.3433",791.2 ± 1 kg/m3
same,mass density,"308.15 K, x1 = 0.4395",794.3 ± 1 kg/m3
same,mass density,"308.15 K, x1 = 0.5495",797.5 ± 1 kg/m3
same,mass density,"308.15 K, x1 = 0.6765",800.7 ± 1 kg/m3
same,mass density,"308.15 K, x1 = 0.8247",803.9 ± 1 kg/m3
same,mass density,"308.15 K, x1 = 1",807.1 ± 1 kg/m3
